Experimental data published in ChEMBL document CHEMBL3853280, “Unexpected Metabolic Versatility in a Combined Fungal Fomannoxin/Vibralactone Biosynthesis” (2016).
Converted amounts (≈) assume the structure as drawn.

Legend:
Type in all cases: functional
Aspergillus fumigatus = assay: Antifungal activity against Aspergillus fumigatus by broth dilution assay
[1] = Antifungal activity against Penicillium notatum by broth dilution assay; details: Penicillium chrysogenum
Trichophyton benhamiae = assay: Antifungal activity against Arthroderma benhamiae by broth dilution assay

| SMILES | MIC (Aspergillus fumigatus) [µg/mL] | MIC [1] [µg/mL] | MIC (Trichophyton benhamiae) [µg/mL] |
| --- | --- | --- | --- |
| COC(=O)c1ccc(OC=C(C)C)c(CO)c1 | 50 (≈ 212 µM) | 25 (≈ 106 µM) | 6.25 (≈ 26.5 µM) |
| COC(=O)c1ccc(OC=C(C)C)cc1 | > 100 | 25 (≈ 121 µM) | 100 (≈ 485 µM) |
| C=C(C)COc1ccc(C(=O)OC)cc1CO | > 100 | 25 (≈ 106 µM) | 25 (≈ 106 µM) |
| CC(=O)OCC1=C[C@@]2(CC=C(C)C)C(=O)O[C@H]2C1 | > 100 | 25 (≈ 99.9 µM) | 50 (≈ 200 µM) |
| CC(C)=C/C=C/C=C1\CCOC1=O | > 100 | 25 (≈ 140 µM) | 12.5 (≈ 70.1 µM) |

The remaining lines, values ahead:

| MIC (Aspergillus fumigatus) [µg/mL] | MIC [1] [µg/mL] | MIC (Trichophyton benhamiae) [µg/mL] | SMILES |
| --- | --- | --- | --- |
| 50 (≈ 213 µM) | 25 (≈ 107 µM) | 6.25 (≈ 26.7 µM) | C=C(C)COc1ccc(C(=O)OC)cc1C=O |
| > 100 | 25 (≈ 120 µM) | 50 (≈ 240 µM) | CC(C)=CC[C@@]12C=C(CO)C[C@@H]1OC2=O |
| > 100 | 25 (≈ 112 µM) | > 100 | CC1=CC=C(CC2CCOC2=O)C(=O)OC1 (centres undefined) |
